Measured values published in patent US20250214991A1 (Oncopia Therapeutics, Inc. d/b/a/ SK Life Science Labs, priority 2022, published 2025).

Experiments:
[1] = molecular target: CRBN/DDB1 (Homo sapiens (Human), UniProt Q96SW2); assay: IC50 measurements for binding to CRBN/DDB1 (HTRF); details: His tagged CRBN+DDB, Cy5-labeled Thalidomide probe, one hour
Procedure: In vitro Assay: IC50 Measurements for binding to CRBN/DDB1 (Table E1)
The binding potency was determined using HTRF assay technology (Perkin Elmer). Compounds were serially diluted in DMSO and 0.2 μL volume was transferred to white 384-well plate. The reaction was conducted in total volume of 20 μL with addition of 2 nM His tagged CRBN+DDB−DLS7+CXU4 (Wuxi, catalogue #RP210521GA) to compounds followed by addition of 60 nM Fluorescent probe Cy5-labeled Thalidomide (Tenova Pharma, catalogue #T52461), and 0.4 nM of MAb Anti-6HIS Tb cryptate Gold (Cisbio, catalogue #61HI2TLA in the assay buffer (50 mM HEPES pH 7.5, 1 mM TCEP, 0.01% Brij-35, 50 mM NaCl, and 0.1% BSA). After one hour incubation at room temperature, the HTRF signals were read on Envision reader (Perkin Elemer). Data was analyzed using XLfit using four parameters dose response curve to determine IC50s. A: IC50<0.1 μM; B: 0.1 μM<IC50<[…]; C: 0.5 μM<IC50<1 μM; D: 1 μM<IC50<5 μM; E: 5 μM<IC50<10 μM

[2] = molecular target: IKZF2 (Homo sapiens (Human), UniProt Q96SW2+Q9UKS7); assay: In vitro IKZF2 HiBit Assay (HEK293T Flp-in-HiBiT cells); assay type: cell-based; details: HEK293T Flp-in-HiBiT cells, 6 hrs incubation; for DC50: read-out: IKZF2 HiBit DC50; for Dmax: HEK-293T, read-out: IKZF2 HiBit Dmax (%)
Chain of IKZF2 (Q9UKS7 whole entry): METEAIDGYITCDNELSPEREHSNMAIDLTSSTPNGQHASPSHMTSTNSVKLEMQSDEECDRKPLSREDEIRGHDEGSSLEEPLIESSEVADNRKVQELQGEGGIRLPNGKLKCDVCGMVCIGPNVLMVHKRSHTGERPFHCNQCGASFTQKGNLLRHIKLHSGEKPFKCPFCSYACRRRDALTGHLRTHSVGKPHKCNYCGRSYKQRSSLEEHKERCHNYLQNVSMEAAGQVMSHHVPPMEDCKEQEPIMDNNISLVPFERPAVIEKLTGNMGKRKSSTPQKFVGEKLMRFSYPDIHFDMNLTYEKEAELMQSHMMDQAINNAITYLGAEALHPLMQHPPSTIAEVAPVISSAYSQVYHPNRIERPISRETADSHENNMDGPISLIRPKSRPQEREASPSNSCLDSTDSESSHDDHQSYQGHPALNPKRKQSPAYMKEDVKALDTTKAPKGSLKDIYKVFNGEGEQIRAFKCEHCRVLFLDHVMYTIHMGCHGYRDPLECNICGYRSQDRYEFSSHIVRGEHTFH
Chain of IKZF2 (Q96SW2 whole entry): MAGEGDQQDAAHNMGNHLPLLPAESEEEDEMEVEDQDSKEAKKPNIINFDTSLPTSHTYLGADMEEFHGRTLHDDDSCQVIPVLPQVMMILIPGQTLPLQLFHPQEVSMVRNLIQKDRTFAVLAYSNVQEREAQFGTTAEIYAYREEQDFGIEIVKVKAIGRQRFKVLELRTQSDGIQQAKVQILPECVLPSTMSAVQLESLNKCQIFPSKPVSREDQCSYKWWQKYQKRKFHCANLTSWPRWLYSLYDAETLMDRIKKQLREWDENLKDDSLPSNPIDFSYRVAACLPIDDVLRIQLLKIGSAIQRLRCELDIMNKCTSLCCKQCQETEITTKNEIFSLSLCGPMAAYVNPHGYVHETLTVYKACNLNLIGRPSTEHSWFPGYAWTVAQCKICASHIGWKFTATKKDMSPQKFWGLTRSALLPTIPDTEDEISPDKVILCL
Chain of IKZF2 (Q16531 2-1140 partner): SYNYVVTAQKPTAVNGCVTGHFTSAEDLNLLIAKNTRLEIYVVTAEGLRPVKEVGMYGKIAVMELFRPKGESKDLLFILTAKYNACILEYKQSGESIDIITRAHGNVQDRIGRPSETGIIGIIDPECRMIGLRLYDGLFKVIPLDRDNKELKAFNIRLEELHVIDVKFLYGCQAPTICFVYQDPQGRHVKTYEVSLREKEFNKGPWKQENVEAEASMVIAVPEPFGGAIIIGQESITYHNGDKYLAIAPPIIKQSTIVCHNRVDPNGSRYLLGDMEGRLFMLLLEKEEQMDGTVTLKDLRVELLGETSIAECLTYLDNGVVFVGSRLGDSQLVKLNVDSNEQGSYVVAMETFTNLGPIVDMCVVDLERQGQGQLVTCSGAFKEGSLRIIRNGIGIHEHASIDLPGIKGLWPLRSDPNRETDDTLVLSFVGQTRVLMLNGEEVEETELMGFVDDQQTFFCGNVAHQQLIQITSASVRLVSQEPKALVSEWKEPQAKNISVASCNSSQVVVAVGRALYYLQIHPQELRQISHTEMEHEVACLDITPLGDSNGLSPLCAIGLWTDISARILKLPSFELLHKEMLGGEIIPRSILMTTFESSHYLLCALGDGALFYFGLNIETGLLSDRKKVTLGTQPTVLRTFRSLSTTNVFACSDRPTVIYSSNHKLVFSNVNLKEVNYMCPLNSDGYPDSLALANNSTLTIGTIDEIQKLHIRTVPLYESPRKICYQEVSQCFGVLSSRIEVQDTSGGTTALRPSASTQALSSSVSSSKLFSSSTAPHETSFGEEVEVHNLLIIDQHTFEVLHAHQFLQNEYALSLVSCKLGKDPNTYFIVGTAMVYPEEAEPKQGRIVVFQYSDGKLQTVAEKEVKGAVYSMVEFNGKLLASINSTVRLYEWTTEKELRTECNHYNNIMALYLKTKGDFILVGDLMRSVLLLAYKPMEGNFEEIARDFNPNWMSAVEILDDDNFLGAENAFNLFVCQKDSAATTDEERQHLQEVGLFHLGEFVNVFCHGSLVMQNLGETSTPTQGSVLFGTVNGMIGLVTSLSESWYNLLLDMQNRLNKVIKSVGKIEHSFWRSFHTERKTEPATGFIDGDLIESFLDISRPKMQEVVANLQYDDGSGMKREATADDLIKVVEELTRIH
Outline: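 HEK293T Flp-in cells carrying an endogenous N-terminal HiBiT tag on IKZF2 were exposed to compound for 6 h at 0.1% DMSO. The dilution series was 11 doses at 3-fold, diluted from 1 mM. Nano-Glo HiBiT lytic luminescence, normalized to DMSO, gave DC50 for 50% degradation and Dmax across the concentration range, both reported in letter bins.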

[3] = molecular target: IKZF1 (Homo sapiens (Human), UniProt Q13422+Q96SW2); assay: In vitro IKZF1 HiBit Assay (HEK293T Flp-in-HiBiT-IKZF1 stable cell line); assay type: cell-based; details: HEK293T Flp-in-HiBiT-IKZF1 stable cell line, 6 hrs incubation; for DC50: read-out: IKZF1 HiBit DC50; for Dmax: HEK-293T, read-out: IKZF1 HiBit Dmax (%)
Chain of IKZF1 (Q13422 whole entry): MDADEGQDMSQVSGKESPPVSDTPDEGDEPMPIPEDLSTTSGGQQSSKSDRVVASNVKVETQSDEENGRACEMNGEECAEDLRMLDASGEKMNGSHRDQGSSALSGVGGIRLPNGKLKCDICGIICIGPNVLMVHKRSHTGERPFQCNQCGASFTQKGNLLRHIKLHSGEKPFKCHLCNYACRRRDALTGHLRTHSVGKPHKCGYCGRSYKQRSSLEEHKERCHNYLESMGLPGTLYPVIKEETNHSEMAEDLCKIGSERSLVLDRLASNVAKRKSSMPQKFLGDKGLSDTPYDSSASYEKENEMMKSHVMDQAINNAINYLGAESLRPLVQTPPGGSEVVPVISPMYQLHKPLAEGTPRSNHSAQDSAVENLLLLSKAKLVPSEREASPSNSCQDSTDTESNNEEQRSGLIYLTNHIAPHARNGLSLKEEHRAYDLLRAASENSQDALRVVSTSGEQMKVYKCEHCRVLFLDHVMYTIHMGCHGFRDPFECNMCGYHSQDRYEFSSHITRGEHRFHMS
Chain of IKZF1 (Q96SW2 whole entry): as the sequence (Q96SW2 whole entry) above
Chain of IKZF1 (Q16531 2-1140 partner): as the sequence (Q16531 2-1140 partner) above
Outline: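 HEK293T Flp-in cells carrying N-terminal HiBiT-tagged IKZF1 were exposed to compound (0.1% DMSO) for 6 h at 3000 cells/well. HiBiT luminescence was read after lytic LgBiT detection. DC50 and Dmax were taken from DMSO-normalized dose-response curves.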

Chain of CRBN/DDB1 (Q96SW2 whole entry, species assumed): as the sequence (Q96SW2 whole entry) above
Chain of CRBN/DDB1 (Q16531 whole entry partner, species assumed): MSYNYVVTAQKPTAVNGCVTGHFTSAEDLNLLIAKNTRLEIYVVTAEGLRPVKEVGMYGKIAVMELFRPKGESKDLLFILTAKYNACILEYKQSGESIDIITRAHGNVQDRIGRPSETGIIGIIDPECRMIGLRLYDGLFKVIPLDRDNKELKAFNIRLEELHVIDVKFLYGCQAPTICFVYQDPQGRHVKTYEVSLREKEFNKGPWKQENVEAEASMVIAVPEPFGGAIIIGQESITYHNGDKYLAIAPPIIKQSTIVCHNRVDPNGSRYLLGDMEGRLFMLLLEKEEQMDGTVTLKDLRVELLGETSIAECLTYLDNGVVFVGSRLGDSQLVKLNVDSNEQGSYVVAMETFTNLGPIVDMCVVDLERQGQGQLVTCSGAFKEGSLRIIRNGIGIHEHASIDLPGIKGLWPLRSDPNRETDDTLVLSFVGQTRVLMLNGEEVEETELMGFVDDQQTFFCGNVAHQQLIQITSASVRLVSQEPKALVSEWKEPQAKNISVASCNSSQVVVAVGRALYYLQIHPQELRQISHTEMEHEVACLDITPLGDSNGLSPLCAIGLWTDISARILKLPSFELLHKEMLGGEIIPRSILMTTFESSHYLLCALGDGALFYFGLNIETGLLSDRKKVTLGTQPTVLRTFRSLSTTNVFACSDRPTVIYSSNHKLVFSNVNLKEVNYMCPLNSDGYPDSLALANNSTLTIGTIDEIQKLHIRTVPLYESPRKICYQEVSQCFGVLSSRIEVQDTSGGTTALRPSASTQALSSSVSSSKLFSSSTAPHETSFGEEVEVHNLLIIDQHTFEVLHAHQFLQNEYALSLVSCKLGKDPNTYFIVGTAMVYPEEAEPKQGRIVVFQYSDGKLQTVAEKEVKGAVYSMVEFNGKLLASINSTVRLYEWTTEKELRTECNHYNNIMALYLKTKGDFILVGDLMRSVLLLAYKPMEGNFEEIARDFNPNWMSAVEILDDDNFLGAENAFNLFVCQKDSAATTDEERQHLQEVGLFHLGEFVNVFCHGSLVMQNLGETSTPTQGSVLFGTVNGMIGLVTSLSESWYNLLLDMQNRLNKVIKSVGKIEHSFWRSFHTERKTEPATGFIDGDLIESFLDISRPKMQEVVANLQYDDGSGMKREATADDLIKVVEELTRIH

Row | Compound | IC50 [1] [µM] | DC50 [2] [µM] | Dmax [2] [%] | DC50 [3] [µM] | Dmax [3] [%]
1 | CS(=O)(=O)C1CCN(Cc2cc(-c3ccc4c(c3)CN(C3CCC(=O)NC3=O)C4=O)nc3c2ccn3C2COC2)CC1 (centres unmarked) [Example 185, 3-(5-(4-((4-(methylsulfonyl)piperidin-1-yl)methyl)-1-(oxetan-3-yl)-1H-pyrrolo[2,3-b]pyridin-6-yl)-1-oxoisoindolin-2-yl) piperidine-2,6-dione] | 0.5 to 1 | 0.1 to 1 | 40 to 60 | > 10 | < 20
2 | Cn1ccc2c(CN3CCC4(CC3)COC4)cc(-c3ccc4c(c3)CN(C3CCC(=O)NC3=O)C4=O)nc21 (centres unmarked) [Example 73, 3-(5-(4-((2-oxa-7-azaspiro[3.5]nonan-7-yl)methyl)-1-methyl-1H-pyrrolo[2,3-b]pyridin-6-yl)-1-oxoisoindolin-2-yl) piperidine-2,6-dione] | 0.1 to 0.5 | 0.001 to 0.01 | > 80 | > 10 | 20 to 40
3 | Cn1ccc2c(CN3CCn4nccc4C3)cc(-c3ccc4c(c3)CN(C3CCC(=O)NC3=O)C4=O)nc21 (centres unmarked) [Example 107, 3-(5-(4-((6,7-dihydropyrazolo[1,5-a]pyrazin-5 (4H)-yl)methyl)-1-methyl-1H-pyrrolo[2,3-b]pyridin-6-yl)-1-oxoisoindolin-2-yl) piperidine-2,6-dione] | 0.1 to 0.5 | 0.01 to 0.1 | 40 to 60 | > 10 | < 20
4 | O=C1CCC(N2Cc3cc(-c4cc(CN5CCC(CO)CC5)c5ccn(C6CC6)c5n4)ccc3C2=O)C(=O)N1 (centres unmarked) [Example 144, 3-(5-(1-cyclopropyl-4-((4-(hydroxymethyl)piperidin-1-yl)methyl)-1H-pyrrolo[2,3-b]pyridin-6-yl)-1-oxoisoindolin-2-yl) piperidine-2,6-dione] | 0.1 to 0.5 | 0.001 to 0.01 | > 80 | 0.01 to 0.1 | 20 to 40
5 | Cc1cc(-c2ccc3c(c2)CN(C2CCC(=O)NC2=O)C3=O)nc2c1CCN2CCO (centres unmarked) [Example 132, 3-(5-(1-(2-hydroxyethyl)-4-methyl-2,3-dihydro-1H-pyrrolo[2,3-b]pyridin-6-yl)-1-oxoisoindolin-2-yl) piperidine-2,6-dione] | 5 to 10 | 0.01 to 0.1 | 40 to 60 | > 10 | < 20
6 | N#CC1CCN(Cc2cc(-c3ccc4c(c3)CN(C3CCC(=O)NC3=O)C4=O)nc3c2ccn3C2COC2)CC1 (centres unmarked) [Example 192, 1-((6-(2-(2,6-dioxopiperidin-3-yl)-1-oxoisoindolin-5-yl)-1-(oxetan-3-yl)-1H-pyrrolo[2,3-b]pyridin-4-yl)methyl) piperidine-4-carbonitrile] | 1 to 5 | 0.01 to 0.1 | 60 to 80 | > 10 | < 20
7 | Cn1ccc2c(C3CCCCN3)cc(-c3ccc4c(c3)CN([C@H]3CCC(=O)NC3=O)C4=O)nc21 (stereo partly drawn) [Example 231, (3S)-3-(5-(1-methyl-4-(piperidin-2-yl)-1H-pyrrolo[2,3-b]pyridin-6-yl)-1-oxoisoindolin-2-yl) piperidine-2,6-dione] | 0.1 to 0.5 | 0.01 to 0.1 | 40 to 60 | 0.001 to 0.01 | 20 to 40
8 | Cn1ccc2c(CN3CCS(=O)(=O)CC3)cc(-c3ccc4c(c3)CN(C3CCC(=O)NC3=O)C4=O)nc21 (centres unmarked) [Example 68, 3-(5-(4-((1,1-dioxidothiomorpholino)methyl)-1-methyl-1H-pyrrolo[2,3-b]pyridin-6-yl)-1-oxoisoindolin-2-yl) piperidine-2,6-dione] | 1 to 5 | 0.1 to 1 | 20 to 40 | > 10 | < 20
9 | Cc1cc(-c2ccc3c(c2)CN(C2CCC(=O)NC2=O)C3=O)nc2nc(CN3CCCC3)oc12 (centres unmarked) [Example 195, 3-(5-(7-methyl-2-(pyrrolidin-1-ylmethyl)oxazolo[4,5-b]pyridin-5-yl)-1-oxoisoindolin-2-yl) piperidine-2,6-dione] | 1 to 5 | 0.01 to 0.1 | 60 to 80 | > 10 | < 20
10 | O=C1CCC(N2Cc3cc(-c4cc(CN5CC(F)C5)c5ccn(C6CC6)c5n4)ccc3C2=O)C(=O)N1 (centres unmarked) [Example 143, 3-(5-(1-cyclopropyl-4-((3-fluoroazetidin-1-yl)methyl)-1H-pyrrolo[2,3-b]pyridin-6-yl)-1-oxoisoindolin-2-yl) piperidine-2,6-dione] | 1 to 5 | 0.001 to 0.01 | > 80 | > 10 | < 20
11 | O=C1CCC(N2Cc3cc(-c4cc(CN5CCCC5)c5nc[nH]c5n4)ccc3C2=O)C(=O)N1 (centres unmarked) [Example 145, 3-(1-oxo-5-(7-(pyrrolidin-1-ylmethyl)-3H-imidazo[4,5-b]pyridin-5-yl)isoindolin-2-yl) piperidine-2,6-dione] | 1 to 5 | 0.1 to 1 | < 20 | > 10 | < 20
12 | O=C1CCC(N2Cc3cc(-c4cc(CN5CCCC5)c5c(n4)C(=O)NC5)ccc3C2=O)C(=O)N1 (centres unmarked) [Example 233, 3-(1-ox0-5-(7-oxo-4-(pyrrolidin-1-ylmethyl)-6,7-dihydro-5H-pyrrolo[3,4-b]pyridin-2-yl)isoindolin-2-yl) piperidine-2,6-dione] | 1 to 5 | > 10 | < 20 | > 10 | < 20
13 | Cn1ccc2c(CN3CCCC3)nc(-c3ccc4c(c3)CN(C3CCC(=O)NC3=O)C4=O)nc21 (centres unmarked) [Example 184, 3-(5-(7-methyl-4-(pyrrolidin-1-ylmethyl)-7H-pyrrolo[2,3-d]pyrimidin-2-yl)-1-oxoisoindolin-2-yl) piperidine-2,6-dione] | 0.5 to 1 | 0.001 to 0.01 | 60 to 80 | 1 to 10 | 20 to 40
14 | O=C1CCC(N2Cc3cc(-c4cc(CN5CCC5)c5cc[nH]c5n4)ccc3C2=O)C(=O)N1 (centres unmarked) [Example 84, 3-(5-(4-(azetidin-1-ylmethyl)-1H-pyrrolo[2,3-b]pyridin-6-yl)-1-oxoisoindolin-2-yl) piperidine-2,6-dione] | < 0.1 | 0.001 to 0.01 | > 80 | 0.01 to 0.1 | 20 to 40
15 | CCn1ccc2c(CN3CCC3)cc(-c3ccc4c(c3)CN(C3CCC(=O)NC3=O)C4=O)nc21 (centres unmarked) [Example 98, 3-(5-(4-(azetidin-1-ylmethyl)-1-ethyl-1H-pyrrolo[2,3-b]pyridin-6-yl)-1-oxoisoindolin-2-yl) piperidine-2,6-dione] | < 0.1 | 0.001 to 0.01 | > 80 | > 10 | < 20
16 | O=C1CCC(N2Cc3cc(-c4cc(CN5CCC(O)C5)c5cc[nH]c5n4)ccc3C2=O)C(=O)N1 (centres unmarked) [Example 120, 3-(5-(4-((3-hydroxypyrrolidin-1-yl)methyl)-1H-pyrrolo[2,3-b]pyridin-6-yl)-1-oxoisoindolin-2-yl) piperidine-2,6-dione] | 0.1 to 0.5 | 0.01 to 0.1 | > 80 | 0.1 to 1 | 20 to 40
17 | Cn1ccc2nc(-c3ccc4c(c3)CN(C3CCC(=O)NC3=O)C4=O)cc(CN3CCCC3)c21 (centres unmarked) [Example 77, 3-(5-(1-methyl-7-(pyrrolidin-1-ylmethyl)-1H-pyrrolo[3,2-b]pyridin-5-yl)-1-oxoisoindolin-2-yl) piperidine-2,6-dione] | 1 to 5 | < 0.001 | > 80 | > 10 | 20 to 40
18 | Cn1ccc2c(CN3CCC(F)C3)cc(-c3ccc4c(c3)CN(C3CCC(=O)NC3=O)C4=O)nc21 (centres unmarked) [Example 304, 3-(5-(4-((3-fluoropyrrolidin-1-yl)methyl)-1-methyl-1H-pyrrolo[2,3-b]pyridin-6-yl)-1-oxoisoindolin-2-yl) piperidine-2,6-dione] | 1 to 5 | 0.001 to 0.01 | > 80 | > 10 | < 20
19 | Cn1ccc2c(CN3CC4(COC4)C3)cc(-c3ccc4c(c3)CN(C3CCC(=O)NC3=O)C4=O)nc21 (centres unmarked) [Example 91, 3-(5-(4-((2-oxa-6-azaspiro[3.3]heptan-6-yl)methyl)-1-methyl-1H-pyrrolo[2,3-b]pyridin-6-yl)-1-oxoisoindolin-2-yl) piperidine-2,6-dione] | 0.5 to 1 | 0.001 to 0.01 | > 80 | 0.01 to 0.1 | 20 to 40
